BindingDB's records for doi:10.1016/S0960-894X(01)80999-9 (1993)

Key:
[1] = In vitro antagonistic activity towards LTB4 receptor was evaluated by inhibition of binding of [3H]LTB4 to human neutrophils
[2] = target: Leukotriene B4 receptor (Cavia porcellus); experiment: Compound was evaluated for inhibition of binding of [3H]LTB4 to LTB4 receptor in guinea-pig lung membranes

SMILES	Ki [1] [nM]	Ki [2] [nM]
CCc1cc(C(C)=O)c(O)cc1OCCCOc1ccc2c(=O)c3cc(C(=O)O)ccc3oc2c1 [disodium 6-[3-(4-acetyl-2-ethyl-5-olatophenoxy)propoxy]-9-oxo-9H-2-xanthenecarboxylate]	751	
COc1ccc(/C=C/CCCCOc2ccc(C(=O)c3cccc(C(=O)O)c3)cc2CCC(=O)O)cc1 [(Z)-3-{3-(2-Carboxy-ethyl)-4-[6-(4-methoxy-phenyl)-hex-5-enyloxy]-benzoyl}-benzoic acid]	7.8	
CCc1cc(C(C)=O)c(O)cc1OCCCOc1ccc(C(=O)c2cccc(C(=O)O)c2)cc1CCC(=O)O [3-[2-[3-(4-acetyl-2-ethyl-5-olatophenoxy)propoxy]-5-(3-carboxylatobenzoyl)phenyl]propanoate]	6.8	
COc1ccc(/C=C/CCCCOc2ccc3c(=O)c4cc(C(=O)O)ccc4oc3c2CCC(=O)O)cc1 [LY-210073]		45
